# Source: patent publication US8008494B2, “Soluble amide and ester pyrazinoylguanidine sodium channel blockers” (Parion Sciences, Inc., priority 2004, dated 2011)
# Where a name gives a salt, the structure may show the parent alone. Read-outs that look alike come from different tables or passages of the source.
# Assays:
# [1] = Solubility of compounds in sodium chloride solution; assay type: physicochemical; conditions: saline or isotonic, thermodynamic from solid
# Protocol: Compound solubility was measured in water, 0.12 or 0.9% sodium chloride solution at ambient temperature for up to 10 days. Using a UV/Visable Spectrophotometer and applying Beer's Law with the calculated extinction coeffecient of amiloride (18.6 mM, absorbance values at 362 nm taken from D. Mazzo 1986) the free base concentration in solution was calculated at specified time points. All samples were stored for the duration of the experiment in a single/closure system consisting of glass vials with a stopper-top closure. The vials were maintained at ambient temperature, in the dark, and in the upright position. Compound stability was measured using reverse phase high performance liquid chromatography on the final filtered pulled sample (day 10).
# Table 2 gives the solubility in saline of selected amide bis methane sulfonic acid salts and compares them to the mono addition methane sulfonic acid salt of PSA 9714.
# [2] = target: T1, Epithelial Sodium Channel (ENaC) (Canis lupus familiaris, UniProt A0A8I3MKE6+A0A8I3Q679+Q95165); experiment: Sodium channel (ENaC) blocking activity, short circuit current in airway epithelial monolayers in Ussing chambers; assay type: cell-based; conditions: canine bronchial epithelium; for Fold Amiloride (PSA4022 = 100): relative potency, PSA4022 = 100, using IC50 from PSA4022 in same run
# T1 construct: endogenous in cells; host or cells: primary canine bronchial epithelial cells from freshly excised airways, cultured at air-liquid interface and mounted in Ussing chambers
# T1 sequence (A0A8I3Q679 1-649): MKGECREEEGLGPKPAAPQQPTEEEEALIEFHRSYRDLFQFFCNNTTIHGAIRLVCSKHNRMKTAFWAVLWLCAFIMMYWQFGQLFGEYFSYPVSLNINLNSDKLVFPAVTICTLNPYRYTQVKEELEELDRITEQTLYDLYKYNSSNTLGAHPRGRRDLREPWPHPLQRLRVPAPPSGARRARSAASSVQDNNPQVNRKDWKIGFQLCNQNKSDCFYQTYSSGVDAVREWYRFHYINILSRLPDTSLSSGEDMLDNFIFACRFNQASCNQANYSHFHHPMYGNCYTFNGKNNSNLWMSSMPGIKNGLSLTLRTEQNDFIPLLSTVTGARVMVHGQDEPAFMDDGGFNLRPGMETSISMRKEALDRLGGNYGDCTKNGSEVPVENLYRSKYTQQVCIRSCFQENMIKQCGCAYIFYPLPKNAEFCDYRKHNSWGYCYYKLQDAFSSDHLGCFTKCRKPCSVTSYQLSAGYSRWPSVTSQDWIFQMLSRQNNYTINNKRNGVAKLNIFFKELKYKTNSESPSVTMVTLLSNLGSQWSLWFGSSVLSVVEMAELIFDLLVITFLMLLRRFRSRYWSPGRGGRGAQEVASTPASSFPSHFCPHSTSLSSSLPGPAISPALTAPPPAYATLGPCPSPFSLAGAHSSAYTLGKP
# T1 sequence (Q95165 1-641): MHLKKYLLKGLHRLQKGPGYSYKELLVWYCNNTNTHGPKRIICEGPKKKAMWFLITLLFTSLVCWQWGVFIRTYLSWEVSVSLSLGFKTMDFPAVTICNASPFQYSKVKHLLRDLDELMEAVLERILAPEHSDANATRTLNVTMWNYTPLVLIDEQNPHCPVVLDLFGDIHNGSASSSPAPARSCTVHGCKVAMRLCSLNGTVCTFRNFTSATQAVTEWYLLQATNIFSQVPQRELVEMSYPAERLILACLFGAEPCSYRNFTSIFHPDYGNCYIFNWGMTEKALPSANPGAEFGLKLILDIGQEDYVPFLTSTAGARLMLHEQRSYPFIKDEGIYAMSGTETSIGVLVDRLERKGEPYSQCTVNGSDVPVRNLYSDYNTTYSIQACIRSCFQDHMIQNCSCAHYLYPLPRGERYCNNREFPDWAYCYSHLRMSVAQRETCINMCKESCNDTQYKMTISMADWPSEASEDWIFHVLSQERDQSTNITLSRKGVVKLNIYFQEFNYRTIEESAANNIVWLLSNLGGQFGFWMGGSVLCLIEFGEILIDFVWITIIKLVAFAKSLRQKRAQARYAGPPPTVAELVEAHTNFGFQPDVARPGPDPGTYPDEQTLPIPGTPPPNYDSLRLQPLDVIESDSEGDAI
# T1 sequence (A0A8I3MKE6 1-646): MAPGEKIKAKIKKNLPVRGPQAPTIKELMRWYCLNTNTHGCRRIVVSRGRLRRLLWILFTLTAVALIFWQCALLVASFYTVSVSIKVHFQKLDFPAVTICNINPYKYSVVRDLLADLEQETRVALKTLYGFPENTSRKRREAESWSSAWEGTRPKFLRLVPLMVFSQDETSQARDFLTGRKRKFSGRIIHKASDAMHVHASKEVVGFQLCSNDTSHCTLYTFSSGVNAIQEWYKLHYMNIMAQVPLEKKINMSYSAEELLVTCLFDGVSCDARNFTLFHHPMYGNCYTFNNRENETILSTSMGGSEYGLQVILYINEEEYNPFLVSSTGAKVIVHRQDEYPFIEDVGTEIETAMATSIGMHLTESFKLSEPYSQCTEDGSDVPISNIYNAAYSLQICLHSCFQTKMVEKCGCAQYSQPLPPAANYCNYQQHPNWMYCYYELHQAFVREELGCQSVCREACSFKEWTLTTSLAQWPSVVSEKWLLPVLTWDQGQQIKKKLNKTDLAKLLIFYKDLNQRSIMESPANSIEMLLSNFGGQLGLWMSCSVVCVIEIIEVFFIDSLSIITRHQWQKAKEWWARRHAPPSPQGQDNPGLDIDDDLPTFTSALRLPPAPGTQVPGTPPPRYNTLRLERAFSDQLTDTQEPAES
# Protocol: One assay used to assess mechanism of action and/or potency of the compounds of the present invention involves the determination of lumenal drug inhibition of airway epithelial sodium currents measured under short circuit current (ISC) using airway epithelial monolayers mounted in Ussing chambers. Cells obtained from freshly excised human, dog or sheep airways are seeded onto porous 0.4 micron Snapwell™ Inserts (CoStar), cultured at air-liquid interface (ALI) conditions in hormonally defined media, and assayed for sodium transport activity (ISC in μA/cm^2) while bathed in Krebs Bicarbonate Ringer (KBR) in Ussing chambers. All test drug additions are to the lumenal bath with half-log dose addition protocols (from 1×10^−11 M to 3×10^−5 M), and the cumulative change in ISC (inhibition) recorded. All drugs are prepared in dimethyl sulfoxide as stock solutions at a concentration of 1×10^−2 M and stored at −20° C. Six preparations are typically run in parallel; one preparation per run incorporates a positive control. All data from the voltage clamps are collected via a computer interface and analyzed off-line.
# Dose-effect relationships for all compounds are considered and analyzed by the Prism 3.0 program. EC50 values, maximal effective concentrations are calculated and compared to positive controls.
# Utilizing the tests set forth above, Table 3 summaries the ENaC blocking ability of some of the amides of this invention when assayed in canine bronchial epithelium.
# Utilizing the tests set forth above, Table 4 summaries the ENaC blocking ability of some of the Esters of this invention when assayed in canine bronchial epithelium.
# [3] = 0.12% sodium chloride solution, 0.12% NaCl solution, methanesulfonic acid salts, ambient temperature, read-out: S1 = Solubility in 0.12% NaCl Solution
# [4] = 0.9% sodium chloride solution (normal saline), 0.9% NaCl solution (normal saline), methanesulfonic acid salts, ambient temperature, read-out: S2 = Solubility in 0.9% NaCl Solution (normal Saline)
# [5] = Table 3, read-out: IC50 (nM), Epithelial Sodium Channel Blocking Activity of Selected Amides
# [6] = Table 4, read-out: IC50 (nM), Epithelial Sodium Channel Blocking Activity of Selected Esters
SMILES,melting point,"solubility ([1]; 0.12% sodium chloride solution, 0.12% saline solution, read-out: solubility in 0.12% saline solution) [µg/mL]","solubility [1, 3] [µg/mL]","solubility [1, 4] [µg/mL]",Fold Amiloride (PSA4022 = 100) ([2]; Table 3),"IC50 [2, 5] [nM]","IC50 [2, 6] [nM]",Fold Amiloride (PSA4022 = 100) ([2]; Table 4)
"CN(C)CCCNC(=O)COc1ccc(CCCCNC(=N)NC(=O)c2nc(Cl)c(N)nc2N)cc1 (as salt: methanesulfonate) [PSA 24304, 2-(4-{4-[N′-(3,5-diamino-6-chloropyrazine-2-carbonyl)guanidino]-butyl}phenoxy)-N-(3-dimethylaminopropyl)acetamide dimethanesulfonate]",187 to 190 °C,–,–,–,–,–,–,–
"CS(=O)(=O)O.CS(=O)(=O)O.N=C(NCCCCc1ccc(C(=O)N2CCNCC2)cc1)NC(=O)c1nc(Cl)c(N)nc1N [PSA23607, N-(3,5-Diamino-6-chloropyrazine-2-carbonyl)-N′-{4-[4-(piperazine-1-carbonyl)phenyl]butyl}guanidine bis-methanesulfonate]",–,> 5000,–,–,–,–,–,–
"N=C(NCCCCc1ccc(OCC(N)=O)cc1)NC(=O)c1nc(Cl)c(N)nc1N [PSA 9714, reference compound]",–,–,< 100,< 100,62,–,–,–
N=C(NCCCCc1ccc(OCC(=O)N2CCNCC2)cc1)NC(=O)c1nc(Cl)c(N)nc1N [PSA 19913],72 to 74 °C,–,> 5000,–,98,9 ± 1,–,–
CN(C)CCNC(=O)COc1ccc(CCCCNC(=N)NC(=O)c2nc(Cl)c(N)nc2N)cc1 [PSA 23185a],97 to 99 °C,–,> 5000,–,59,14 ± 9,–,–
N=C(NCCCCc1ccc(OCC(=O)NCCN(CCO)CCO)cc1)NC(=O)c1nc(Cl)c(N)nc1N [PSA 23450],87 to 89 °C,–,> 5000,> 5000,38,18,–,–
N=C(NCCCCc1ccc(OCC(=O)NCCN)cc1)NC(=O)c1nc(Cl)c(N)nc1N [PSA 23778],105 to 107 °C (dec.),–,> 5000,–,146,–,–,–
"CN(C)CCCNC(=O)COc1ccc(CCCCNC(=N)NC(=O)c2nc(Cl)c(N)nc2N)cc1 [PSA 24304, 2-(4-{4-[N′-(3,5-diamino-6-chloropyrazine-2-carbonyl)guanidino]-butyl}phenoxy)-N-(3-dimethylaminopropyl)acetamide dimethanesulfonate]",–,–,> 5000,–,173,4 ± 2,–,–
CN(C)CCCCNC(=O)COc1ccc(CCCCNC(=N)NC(=O)c2nc(Cl)c(N)nc2N)cc1 [PSA 24305],188 to 190 °C,–,> 5000,> 5000,152,6 ± 5,–,–
"CC(C)(C)OC(=O)NCCOC(=O)COc1ccc(CCCCNC(N)=NC(=O)c2nc(Cl)c(N)nc2N)cc1 [PSA 25309, (4-{4-[N′-(3,5-Diamino-6-chloropyrazine-2-carbonyl)guanidino]butyl}phenoxy)acetic acid 2-tert-butoxycarbonylaminoethyl ester]",80 to 82 °C,–,–,–,–,–,4,119
"N=C(NCCCCc1ccc(OCC(=O)OCCN2CCCCC2)cc1)NC(=O)c1nc(Cl)c(N)nc1N [PSA 25453, (4-{4-[N′-(3,5-diamino-6-chloropyrazine-2-carbonyl)guanidino]butyl}-phenoxy)acetic acid 2-piperidin-1-yl-ethyl ester]",–,–,–,–,–,–,19 ± 16,38
"N=C(NCCCCc1ccc(OCC(=O)OCCN)cc1)NC(=O)c1nc(Cl)c(N)nc1N [PSA 25454, (4-{4-[N′-(3,5-diamino-6-chloropyrazine-2-carbonyl)guanidino]butyl}-phenoxy)acetic acid 2-aminoethyl ester dihydrochloride]",–,–,–,–,–,–,12 ± 2,44
"N=C(NCCCCc1ccc(OCC(=O)OCC2CCNCC2)cc1)NC(=O)c1nc(Cl)c(N)nc1N [PSA 25720, (4-{4-[N′-(3,5-diamino-6-chloropyrazine-2-carbonyl)guanidino]butyl}-phenoxy)acetic acid piperidin-4-yl-methyl ester dihydrochloride]",–,–,–,–,–,–,3,189
